Values of other authors, collected in patent US20040198651A1, “Secreted proteins” (priority 2001, published 2004).

Key:
[1] = relative to progesterone
[2] = intranasal; relative to hydrocortisone

Compound | pharmacological activity greater than progesterone [1] | anti-inflammatory and vasoconstrictive effects greater than those produced by hydrocortisone [2]
6α-methyl-17-hydroxyprogesterone [medroxyprogesterone] | about 15 times | –
C[C@H]1C[C@H]2[C@@H]3CCC4=CC(=O)C=C[C@]4(C)[C@@]3(Cl)[C@@H](O)C[C@]2(C)[C@@]1(O)C(=O)CO [beclomethasone] | – | 5000 times
